Reference: patent US20130158014A1, “METHOD FOR TREATING DISEASES ASSOCIATED WITH ALTERATIONS IN CELLULAR INTEGRITY USING RHO KINASE INHIBITOR COMPOUNDS” (priority 2008, published 2013)
Like-named read-outs stand apart in the source and are kept apart here.

Key:
p70S6K = target: T1, p70S6K (Homo sapiens, UniProt P23443, T412E); assay: p70S6K inhibition assay (IMAP); format: biochemical; details: average
T1 construct: purchased Upstate Chemicon 14-486
Protocol: (§1) Inhibition of Akt3 and p70S6K activity was determined using the IMAP™ FP Progressive Binding Kit (Molecular Devices product number R8127). […] Following the pre-incubation, 30 μM ATP was added to initiate the reaction. After 60 minutes at RT, Molecular Devices IMAP™ binding solution was added to bind phosphorylated substrate. After 30 minutes of incubation in the presence of the IMAP™ beads the fluorescence polarization was read and the ratio was reported as mP. IC50 results were calculated using the Prism software from Graphpad. The Ki values were determined according to the following formula: Ki=IC50/(1+([ATP Challenge]/EC50 ATP)).

[1] = Compound plasma concentrations in unsensitized mice at 15 min post administration; format: in vivo, mouse; details: for Mouse Oral PK: mean plasma concentration in mice, 15 minutes post oral administration; for Plasma Mean Concentration: mice, 15 min post administration, mean n = 3 mice
Protocol: Test compounds were formulated in water or 1% polysorbate 80 and dosed at 15 μmmol/kg for intraperitoneal (IP) or oral (PO) administration or formulated for intratracheal (IT) administration and dosed at 5 μmmol/kg, which directly targets the lungs. Following completion of the in vivo study, mice were euthanized and blood and plasma collected approximately 2.5-3 hours post administration of test compound for bronchodialator (BD) studies and 24 hours post administration for anti-inflamatory (AI) studies. […] Both plasma samples and lung extracts were assayed for compound concentrations using an on-line, solid phase extraction LC/MS/MS system.

[2] = Rat oral pharmacokinetics (plasma); format: in vivo; details: rat oral PK, mean n = 3 rats, 20-30 μmmol/kg
Protocol: Plasma (EDTA K2 anticoagulant) was collected from male, cannulated, CD Sprague Dawley rats to determine the pharmacokinetics of formulations containing compound inhibitors of Rho kinase. Each animal was dosed orally with a 4 ml/kg solution or suspension of each test compound in 10 mM acetate buffered saline, pH 4.5 at a final concentration range of 20-30 μmmol/kg. Blood was collected at 0.25, 0.5, 1, 2, 4, 6, 8, and 24 hours. Plasma samples were assayed for the concentration of the test compound using an on-line, solid phase extraction LC/MS/MS analysis system.
Samples were analyzed on a QSTAR Elite, hybrid quadrupole time-of-flight mass spectrometer (Applied Biosystems, Framingham, Mass.) coupled with a Symbiosis Pharma integrated, on-line SPE-HPLC system (Spark Holland Inc., Plainsboro, N.J.). Analyst QS 2.0 software was used for instrument control, data acquisition and processing. […] Mobile Phase A consisted of 0.1% ammonium hydroxide in water and Mobile Phase B consisted of 0.1% formic acid in acetonitrile. Pharmacokinetic analyses were performed using WinNonlin software version 5.2 (Pharsight Corporation, Mountain View, Calif.).
As determined from the plasma concentration versus time curves, the time to peak and peak exposure are represented by the values Tmax and Cmax, respectively. The AUC values (nM*hr) shown were calculated as the areas under the plasma concentration versus time curves from time zero through the time of the last observable value and represent the total exposure of the compound over the course of the study. Half-life values or the amount of time required for the plasma levels of the compound to decline to half the initial value are represented as t1/2.

[3] = system: ova-sensitized, ova-challenged mice; assay: Mouse ovalbumin sensitization model: eosinophils in BALF; format: in vivo; details: dosed orally once a day, day 27 to day 31; FIG. 4
Protocol: Male BALB/c mice were ordered from Charles River Laboratories (Raleigh, N.C.). The animals were approximately 19 to 21 grams at time of receipt. Upon arrival, the animals were randomized into groups of five males per cage and assigned to a dosing group. Animals were quarantined for 7 days under test conditions. They were observed daily for general health status and ability to adapt to the water bottles. Animals were sensitized on day 0 and 14 of study by an intraperitoneal injection with 20 μg of ovalbumin (ova) and 2.0 mg aluminum hydroxide (alum) which initiates the development of a specific T-helper (Th) cells type 2 resulting in asthmatic animals (denoted as Ova in the figures). One group of animals received an injection of saline to use as control animals (denoted as normal in the figures). All animals were challenged with aerosolized 1% ova once daily for 25 minutes on days 28, 29, and 30 (Zosky, et al. Respiratory Research. 2004; 5:15). Aerosol challenge consists of using an Aerogen Aeroneb nebulizer and controller with a particle size of 4-6 μm mass median aerodynamic diameter (MMAD) with a distribution of 400 μl per minute. This aerosol challenge is necessary to target the Th2-driven allergic inflammation in the lower airways. […]
Bronchoalveolar lavage fluid (BALF) was collected by infusing 3.0 ml of saline with 10% fetal calf serum into the lungs via the trachea and then withdrawing the fluid. The total amount of cells/ml of BALF fluid was determined via manual cell count on hemocytometer. The BALF was centrifuged, supernatant removed and analyzed for cytokine concentrations as described below, and cell pellet reconstituted in 500 μL of fluid. […] Following Hema3 stain, relative percentages of individual leukocytes were determined on a 200 cell count for each sample. The final concentration of individual leukocyte cell types per ml of BALF was determined by multiplication of the relative percentage of individual leukocytes with the total amount of cells/ml of BALF fluid.

[4] = system: ova-sensitized, ova-challenged mice; assay: Prevention of airway hyperreactivity (Penh, methacholine) in mouse ovalbumin model; format: in vivo; details: days 27 to 31; for airway hyperreactivity: intratracheal once a day
Protocol: The anti-inflammatory dosing paradigm consists of dosing the animals once a day starting on day 27 and finishing on either day 30 or 31 (1 hr prior to the aerosolized ovalbumin challenges on days 28 to 30) but not on day 32 when hyperreactivity evaluation occurs. […] Exposure to the methacholine doses consisted of a 3 minute period during which a nebulizer was aerosolizing the methacholine and an additional 3 minute period following the cessation of nebulization. […] Enhanced pause (Penh), a unitless index of airway hyperreactivity, is derived from the expiratory side of the respiratory waveform measured via the plethysmograph and is used as an indirect measure of airway resistance and hyperreactivity. […] Following the methacholine dose response, BALF was collected and all animals were anesthetized, bled and euthanized. […] The Penh value at each of the dose levels of methacholine represents the 6-minute average response. Change from baseline (CFB) in Penh was calculated at each methacholine dose and the area under the curve (AUC) for these CFB values was calculated using the trapezoidal rule. This same approach was applied for each mouse across multiple experiments. […] Data from equal experimental conditions across experiments performed on different days were pooled for statistical analysis and data reporting. […] A random intercept for each experiment was assumed to account for possible similarities of the results obtained from a given experiment (i.e., as a “blocking effect”). […] For FIG. 9, linear AUC values from compound treated mice were reported as a percent of linear AUC values from vehicle-treated ovalbumin-sensitized/ovalbumin-challenged (asthmatic) mice.

ERK2 = target: T2, ERK2 (Homo sapiens, UniProt P28482); assay: Kinase panel screen (KinaseProfiler): ERK2; format: biochemical; details: 10 μM ATP, read-out: Percent inhibition ERK2; for activity at 1 µM: 1 μM test compound; for activity at 10 µM: 10 μM test compound
T2 construct: purchased Upstate, Millipore Bioscience Division (KinaseProfiler service)
Protocol: Compounds of Formulae I and II were examined for activity against a selected panel of kinases using the KinaseProfiler™ enzyme profiling services (Upstate, Millipore Bioscience Division). Percent kinase activity at 10 μM and 1 μM test compound and 10 μM ATP was determined against 40 wild-type recombinant human kinases according to Upstate's standard protocol: ASK1, BTK, CSK, c-RAF, GCK, GSK3β, IKKα, IKKβ, IRAK1, IRAK4, JNK1α1, JNK2α2, JNK3, ERK1, ERK2, MAPKAP-K2, MAPKAP-K3, MEK1, MKK4, MKK6, MKK7β, Mnk2, MSK1, PAK3, PDK1, PRAK, ROCK1, Rsk2, SAPK2a, SAPK2b, SAPK3, SAPK4, SRPK1, SRPK2, Syk, TAK1, TBK1, PI3-Kβ, PI3-Kγ, PI3-Kδ.

[5] = system: A-10 rat thoracic aorta cells; assay: PDGF-stimulated smooth muscle cell proliferation assay (BrdU); format: cell-based; details: for Proliferation at 10 μM: 10 μM test compound
Protocol: Effects on cell proliferation were measured using a bromodeoxyuridine (BrdU) incorporation assay. […] Serum free media containing 0.1% BSA was added to the cells. 24 hours later the media was removed and replaced with warmed serum free media. […] Proliferation was then monitored using the BrdU Cell Proiferation Assay, HTS (Calbiochem cat. #HTS01). BrdU was allowed to incorporate into cells for 24 hours prior to the addition of fixative/denaturing solution and the fluorometric detection of incorporated BrdU using a BrdU antibody as per manufacturer's directions. Data are reported as a percent of the PDGF-stimulated BrdU incorporation.

[6] = system: TNF-α secretion from LPS-stimulated human monocytes; assay: Human monocyte cytokine secretion assay (LPS): TNF-α; format: cell-based; details: average percent of stimulated secretion from human monocytes, 10 μM test compound
Protocol: (§2) Peripheral blood from healthy human volunteers was collected and the monocytes isolated via Ficoll-paque density centrifugation. […] The cells were allowed to pre-incubate with test compound at the indicated concentration for 30 minutes (37° C., 5% CO2, humidified air); after which the supernatant was removed and media containing compound and 1 ng/mL LPS was added. Cells were allowed to incubate with compounds and LPS for 4 hours at 37° C. after which the supernatant was removed and stored at −80° C. Cytokine concentrations in the supernatant were determined using commercially available Bio-Rad Bio-plex™ kits according the manufacturer's instructions.

[7] = system: IL-1β secretion from LPS-stimulated human monocytes; assay: Human monocyte cytokine secretion assay (LPS): IL-1β; format: cell-based; details: average percent of stimulated secretion from human monocytes, 10 μM test compound
Protocol: as §2

Akt3 = target: T3, Akt3 (Homo sapiens, UniProt Q9Y243); assay: Akt3 inhibition assay (IMAP); format: biochemical; details: IMAP FP assay, 30 μM ATP; average
T3 construct: purchased Upstate Chemicon 14-502
Protocol: as §1

ROCK2 = target: T4, ROCK2 (Homo sapiens, UniProt O75116); assay: Rho kinase inhibition assay (IMAP), ROCK2; format: biochemical; details: average
T4 construct: purchased Upstate/Chemicon 14-451
Protocol: Following the pre-incubation, 10 μM ATP was added to initiate the reaction. After 60 minutes at room temperature, Molecular Devices IMAP™ binding solution was added to bind phosphorylated substrate. After 30 minutes of incubation in the presence of the IMAP™ beads, the fluorescence polarization was read and the ratio was reported as mP. IC50 values for compounds and EC50 values for ATP were calculated using the Prism software from Graphpad.

[8] = system: IL-6 secretion from LPS-stimulated human monocytes; assay: Human monocyte cytokine secretion assay (LPS): IL-6; format: cell-based; details: average percent of stimulated secretion from human monocytes, 10 μM test compound
Protocol: as §2

LPS-challenged mice = assay: LPS-induced cytokine production assay (IL-1β in BALF); format: in vivo, mouse; details: intratracheal, one hour prior to LPS challenge; BALF four hours after; FIG. 13
Protocol: Male BALB/c mice, approximately 19 to 21 grams, were ordered from Charles River Laboratories (Raleigh, N.C.). All animals were challenged with aerosolized LPS (10 μg/ml) for 25 minutes on study day 0. LPS aerosol was generated using an Aerogen Aeroneb nebulizer and controller providing a flow of 400 μl/min and a particle size of 2-4 μm MMAD. Rolipram was administered i.p at 20 mg/kg. […] Total cell counts were determined using the Coulter Counter. For differential evaluations, BALF was centrifuged and cytospin slides prepared and stained […]. Manual leukocyte counts were then completed on 200 cells. The final concentration of individual leukocyte cell types per ml of BALF was determined by multiplication of the relative percentage of individual leukocytes with the total amount of cells/ml of BALF fluid. The concentration of IL-1β in the BALF samples was determined using commercially available Bio-plex kits (Bio-Rad).

[9] = IMAP FP assay, 30 μM ATP, read-out: p70S6K Ki, Avg
[10] = average percent of PDGF stimulated proliferation
[11] = IMAP assay, 10 μM ATP, read-out: ROCK2 Ki, Avg

T4 sequence (O75116 11-552 limits assumed): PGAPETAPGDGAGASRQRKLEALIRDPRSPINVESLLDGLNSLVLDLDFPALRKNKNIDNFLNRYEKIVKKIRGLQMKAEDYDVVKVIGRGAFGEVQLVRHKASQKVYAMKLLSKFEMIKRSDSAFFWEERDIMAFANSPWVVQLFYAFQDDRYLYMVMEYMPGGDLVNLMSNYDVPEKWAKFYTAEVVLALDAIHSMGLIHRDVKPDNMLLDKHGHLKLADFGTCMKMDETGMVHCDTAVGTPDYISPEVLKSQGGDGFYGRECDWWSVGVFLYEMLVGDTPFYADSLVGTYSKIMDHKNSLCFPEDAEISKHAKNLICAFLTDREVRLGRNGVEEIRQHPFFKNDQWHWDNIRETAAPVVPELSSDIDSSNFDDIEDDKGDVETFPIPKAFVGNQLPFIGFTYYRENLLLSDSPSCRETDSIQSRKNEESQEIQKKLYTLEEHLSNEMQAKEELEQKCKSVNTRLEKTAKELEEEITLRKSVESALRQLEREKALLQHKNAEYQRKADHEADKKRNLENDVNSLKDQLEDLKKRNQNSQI
T2 sequence (P28482 whole entry): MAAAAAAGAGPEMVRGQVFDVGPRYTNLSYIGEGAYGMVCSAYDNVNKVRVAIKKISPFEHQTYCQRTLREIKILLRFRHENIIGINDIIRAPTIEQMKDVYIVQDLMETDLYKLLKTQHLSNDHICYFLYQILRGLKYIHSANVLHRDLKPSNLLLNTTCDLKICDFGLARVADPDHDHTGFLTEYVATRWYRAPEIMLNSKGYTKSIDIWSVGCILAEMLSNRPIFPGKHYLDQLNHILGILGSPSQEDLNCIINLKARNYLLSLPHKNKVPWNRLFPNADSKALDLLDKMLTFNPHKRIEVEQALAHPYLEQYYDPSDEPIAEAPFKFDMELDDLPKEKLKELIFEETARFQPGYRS
T1 sequence (P23443 1-421 T412E limits assumed): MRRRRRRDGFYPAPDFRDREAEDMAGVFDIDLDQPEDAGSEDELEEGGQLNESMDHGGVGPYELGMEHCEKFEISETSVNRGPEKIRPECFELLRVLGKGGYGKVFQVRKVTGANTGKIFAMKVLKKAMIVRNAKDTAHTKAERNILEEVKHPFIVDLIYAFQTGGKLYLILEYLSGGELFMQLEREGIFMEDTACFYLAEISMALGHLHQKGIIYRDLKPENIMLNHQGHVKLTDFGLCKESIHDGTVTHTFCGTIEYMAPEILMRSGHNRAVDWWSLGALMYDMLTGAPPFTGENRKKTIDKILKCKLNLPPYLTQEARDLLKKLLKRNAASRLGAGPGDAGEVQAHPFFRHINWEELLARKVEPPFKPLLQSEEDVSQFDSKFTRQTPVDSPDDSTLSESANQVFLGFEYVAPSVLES
T3 sequence (Q9Y243 whole entry): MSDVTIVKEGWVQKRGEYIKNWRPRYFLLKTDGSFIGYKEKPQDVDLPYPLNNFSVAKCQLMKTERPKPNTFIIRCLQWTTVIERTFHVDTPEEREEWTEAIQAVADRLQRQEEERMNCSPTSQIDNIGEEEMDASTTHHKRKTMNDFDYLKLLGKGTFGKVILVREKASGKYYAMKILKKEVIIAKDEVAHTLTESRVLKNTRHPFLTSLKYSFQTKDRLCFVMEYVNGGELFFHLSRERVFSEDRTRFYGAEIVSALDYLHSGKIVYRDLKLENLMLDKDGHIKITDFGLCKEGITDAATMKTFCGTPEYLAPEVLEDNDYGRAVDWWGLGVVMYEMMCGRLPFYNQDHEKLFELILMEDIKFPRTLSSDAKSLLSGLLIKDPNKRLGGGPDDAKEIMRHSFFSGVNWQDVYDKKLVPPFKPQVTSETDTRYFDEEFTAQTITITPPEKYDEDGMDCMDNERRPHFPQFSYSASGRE

Structure (SMILES): COc1ccc(CN2CCC[C@H](Nc3ccc4[nH]ncc4c3)C2)cc1 [Compound 1.079]
- Ki (p70S6K; [9]): 3.01 µM
- Ki (p70S6K; read-out: p70S6K Ki): 3.01 µM
- Mouse Oral PK [1]: 2443 nM
- Plasma Mean Concentration [1]: 2442.5 nM

Structure (SMILES): OCCOc1cccc(CN2CCC[C@@H](Nc3ccc4[nH]ncc4c3)C2)c1 [Compound 1.092]
- Vz_F [2]: 19.0 L/kg

Structure (SMILES): c1cc2cc(CN3CCC[C@@H](Nc4ccc5[nH]ncc5c4)C3)ccc2o1 [Compound 1.131]
- eosinophils per ml of BALF [3]: reduced
- airway hyperreactivity to methacholine on Day 32 ([4]; oral 15 μMol/kg once a day): prevention of airway hyperreactivity

Structure (SMILES): CCc1ccc(CN2CCC[C@@H](Nc3ccc4[nH]ncc4c3)C2)cc1 [Compound 1.136]
- AUC (0-last) [2]: BLQ
- Cmax [2]: BLQ
- Tmax [2]: BLQ
- Vz_F [2]: BLQ
- t½ [2]: BLQ

Structure (SMILES): Cc1ccc(CN2CCC[C@@H](Nc3ccc4[nH]ncc4c3)C2)cc1OCCO [Compound 1.161]
- airway hyperreactivity [4]: prevention of airway hyperreactivity
- activity at 1 µM (ERK2): 104%
- activity at 10 µM (ERK2): 92%

Structure (SMILES): NC(=O)COc1cccc(CN2CCC[C@H](Nc3ccc4[nH]ncc4c3)C2)c1 [Compound 1.195]
- Ki (p70S6K; [9]): 2.73 µM
- Ki (p70S6K; read-out: p70S6K Ki): 2.73 µM
- Mouse Oral PK [1]: 108 nM
- Plasma Mean Concentration [1]: 107.9 nM

Structure (SMILES): Cc1ccc(CN2CCC[C@H](Nc3ccc4[nH]ncc4c3)C2)cc1NS(=O)(=O)N(C)C [Compound 1.237]
- Percent of PDGF Induced Proliferation at 1 μM Avg ([5]; 1 μM, 10 ng/mL PDGF): 63.5%
- Percent of PDGF Induced Proliferation at 10 μM Avg ([5]; 10 μM, 10 ng/mL PDGF): 51.4%
- Proliferation at 1 μM ([5]; average percent of PDGF stimulated proliferation, 1 μM test compound): 63.5%
- Proliferation at 10 μM [5, 10]: 51.4%
- TNF-α [6]: 70.6%
- IL-1β [7]: 97.1%
- Ki (Akt3): 7.91 µM
- Ki (ROCK2; [11]): 0.004 µM
- Ki (ROCK2; read-out: ROCK2 Ki): 0.004 µM
- IL-6 [8]: 100.9%

Structure (SMILES): Cc1ccc(CN2CCC[C@@H](Nc3ccc4[nH]ncc4c3)C2)cc1NS(=O)(=O)N(C)C [Compound 1.262]
- TNF-α [6]: 135.3%
- IL-1β [7]: 145.7%
- Ki (Akt3): 0.861 µM
- Ki (ROCK2; [11]): 0.004 µM
- Ki (ROCK2; read-out: ROCK2 Ki): 0.004 µM
- IL-6 [8]: 156.6%

Structure (SMILES): CSc1ccc(CN2CC[C@@H](Nc3cccc4cnccc34)C2)cc1 [Compound 2.026]
- Proliferation at 10 μM [5, 10]: 52.0%
- AUC (0-last) [2]: BLQ
- Cmax [2]: BLQ
- Tmax [2]: BLQ
- Vz_F [2]: BLQ
- t½ [2]: BLQ

Structure (SMILES): NC(=O)Cn1ccc2cc(CN3CC[C@@H](Nc4cccc5cnccc45)C3)ccc21 [Compound 2.059]
- airway hyperreactivity [4]: prevention of airway hyperreactivity
- IL-1β in BALF (LPS-challenged mice): reduction
- activity at 1 µM (ERK2): 56%
- activity at 10 µM (ERK2): 12%

Structure (SMILES): OCCn1ccc2cc(CN3CC[C@@H](Nc4cccc5cnccc45)C3)ccc21 [Compound 2.066]
- airway hyperreactivity [4]: prevention of airway hyperreactivity
- activity at 10 µM (ERK2): 12%
